Laboratory results taken from patent US7223793B2, “Phenolic acid derivatives and composition for preventing or treating blood lipid level-related diseases comprising the same” (Bionutrigen Co., Ltd., priority 2001, dated 2007).
Blank lines part the entries; values can stand above or below the compound they belong to.

Tests used:
[1] = tested on: New Zealand White rabbits; assay: Abnormal fat-containing cells in liver of cholesterol-fed rabbits (Experimental Example 3); assay type: in vivo, rabbit; settings: 1% cholesterol diet, 8 weeks; for Microscopic observation of liver cells (fatty liver): FIGS. 2a-2c; for Grade of proportion of abnormal fat-containing cells in the liver lobules around the central vein: grades 1+(0-25%), 2+(26-50%), 3+(51-75), 4+(76-100%), lovastatin 1 mg/kg or BN30028 0.05 wt %
Procedure: Thereafter, a piece of each organ was fixed in 10% neutral formalin for at least 24 hours. The fixed organ piece was washed sufficiently with tap water, dehydrated stepwise with 70%, 80%, 90% and 100% ethanol and, then, embedded in a paraffin by employing SHANDON, Histocentre 2, USA. The embedded organ piece was sectioned in a thickness of 4 μm with a microtome (LEICA, RM2045, Germany) and stained with H & E (hematoxylin and eosin). The stained organ specimen was made transparent with xylene, mounted with permount, and then observed under a microscope.
In order to quantitatively evaluate the effects of feeding a high cholesterol diet with test substances on liver tissues, the liver specimens prepared in step 3 of the Experimental Example 3 were observed under a microscope with referring to the procedure described by Fogt F. et al. (Fogt F. and Nanji A., Toxicology and Applied Pharmacology, 136, 87-93, 1996) and the procedure described by Keegan et al. (Keegan A., et al., Journal of Hepatology 23: 591-600, 1995). The specimens were classified into for grades: 1+(0-25%), 2+(26-50%), 3+(51-75) and 4+(76-100%) according to the proportion of abnormal fat-containing cells in the liver lobules around the central vein. The significant differences between the test groups were tested by student t-test using Microsoft excel (version 7.0) program

ACAT [2] = assay: ACAT activity in liver microsomes of treated rabbits (Experimental Example 4); assay type: in vivo, rabbit; settings: liver microsomes of rabbits fed 8 weeks; for ACAT activity: lovastatin 1 mg/kg or BN30028 0.05 wt %, average ± standard deviation; for ACAT activity inhibition: relative to control group
Procedure: The rabbits raised as described in step 1 of the Experimental Example 2 were sacrificed by decapitation and the livers were removed from the rabbits. 1 g of the liver tissue taken from each rabbit was homogenized in 5 ml of homogenization medium (0.1 M KH2PO4, pH 7.4, 0.1 mM EDTA and 10 mM β-mercaptoethanol). The homogenate was centrifuged at 3,000×g for 10 minutes at 4° C. and the supernatant thus obtained was centrifuged at 15,000×g for 15 minutes at 4° C. to obtain a supernatant. The resulting supernatant was put into an ultracentrifuge tube (Beckman) and centrifuged at 100,000×g for 1 hour at 4° C. to obtain microsomal pellets, which were then suspended in 3 ml of the homogenization medium and centrifuged at 100,000×g for 1 hour at 4° C. The pellets thus obtained were suspended in 1 ml of the homogenization medium. The protein concentration of the resulting suspension was determined by Lowry's method and then adjusted to the range of 4 to 8 mg/ml. The resulting suspension was stored in a deep freezer (Biofreezer, Forma Scientific Inc.).
6.67 μl, of 1 mg/ml cholesterol solution in acetone was mixed with 6 μl of 10% Triton WR-1339 (Sigma Co.) in acetone. Acetone was removed from the mixture by evaporation under a nitrogen flow. To the resulting mixture, distilled water was added to adjust the concentration of cholesterol to 30 mg/ml.
To 10 μl of the resulting aqueous cholesterol solution, 10 μl of 1 M KH2PO4 (pH 7.4), 5 μl of 0.6 mM bovine serum albumin (BSA), 10 μl of the microsome solution obtained in Step 1 and 55 μl of distilled water (total 90 μl) were added. The mixture was pre-incubated in a water bath at 37° C. for 30 minutes.
(§1) 10 μl of (1-^14C) oleyl-CoA solution (0.05 μCi, final concentration: 10 μM) was added to the pre-incubated mixture and the resulting mixture was incubated in a water bath at 37° C. for 30 minutes. 500 μl of isopropanol:heptane mixture (4:1 (v/v)), 300 μl of heptane and 200 μl of 0.1 M KH2PO4 (pH 7.4). were added to the mixture. The mixture was mixed vigorously using a vortex mixer and then allowed to stand at room temperature for 2 minutes.
200 μl of the resulting supernatant was put in a scintillation bottle and 4 ml of scintillation fluid (Lumac) was added thereto. The mixture was assayed for radioactivity with 1450 Microbeta liquid scintillation counter (Wallacoy, Finland). ACAT activity was calculated as picomoles of cholesteryl oleate synthesized per minute per mg protein (pmoles/min/mg protein). All the data are expressed by average±standard deviation(p<0.05).

[3] = tested on: New Zealand White rabbits; assay: Histological observation of the organs of treated rabbits (Experimental Example 7, Step 5); assay type: in vivo, rabbit; settings: 8 weeks
Description: Tissues of the lung, myocardium, kidney and muscle taken from the rabbits treated with the phenolic acid derivatives (BN30063, BN30064, BN30067) were visually examined for pathological changes using a microscope.

ACAT [4] = assay: ACAT activity in liver microsomes of treated rats (Experimental Example 6, Step 3); assay type: in vivo, rat; settings: liver microsomes of rats fed 6 weeks; for ACAT activity: average; for ACAT activity inhibition: relative to control group
Procedure: 1 g of the liver tissue taken from each sacrificed rat of Step 1 was homogenized in 5 ml of the first homogenization medium {0.1 M KH2PO4(pH 7.4), 0.1 mM EDTA and 10 mM β-mercaptoethanol}. The homogenate was centrifuged at 3,000×g for 15 minutes at 4° C. and the supernatant thus obtained was put into a tube and centrifuged at 15,000×g for 15 minutes at 4° C. to obtain a supernatant. The resulting supernatant was put into a 5 mL ultracentrifuge tube (Beckman) and centrifuged at 100,000×g for 1 hour at 4° C. The supernatant was removed off and pellets thus obtained were suspended in 3 mL of the first homogenization medium and centrifuged at 100,000×g for 1 hour at 4° C. The resulting supernatant was removed off and pellets thus obtained were suspended in 1 ml of the first homogenization medium. The resulting suspension was stored in a deep freezer.
6.67 μl of 1 mg/ml cholesterol solution in acetone was mixed with 6 μl of 10% Triton WR-1339 (Sigma Co.) in acetone. Acetone was removed from the mixture by evaporation under a nitrogen flow. To the resulting mixture, distilled water was added to adjust the concentration of cholesterol to 300 mg/10 ml. 10 μl of the resulting aqueous cholesterol solution was mixed with 10 μl of 1 M KH2PO4 (pH 7.4), 5 μl of 0.6 mM bovine serum albumin (BSA), 10 μl of the microsome solution obtained as above and 55 μl of distilled water (total 90 μl). The mixture was pre-incubated in a water bath at 37° C. for 30 minutes.
as §1, with “of” for “of (1-^14C)”, “[…] prepared by mixing radiolabelled oleyl-CoA with oleyl-CoA” for “(0.05 μCi, final concentration: 10 μM)”, “7.4)” for “7.4).”
200 μl of the resulting supernatant was put in a scintillation bottle and 4 mL of scintillation fluid (Lumac) was added thereto. The mixture was assayed for radioactivity with a scintillation counter. ACAT activity was calculated from the measured radioactivity, which was used to determine the ACAT activity inhibition (%).

Compound: COC(=O)C(Cc1ccccc1)NC(=O)CCc1ccc(O)c(O)c1 (centres unmarked) [BN30028, 2-[3-(3,4-dihydroxyphenyl)propionylamino]-3-phenyl propionic acid methyl ester]
Microscopic observation of liver cells (fatty liver) [1]: almost all liver cells of the rabbits administered with BN30028 are of a normal shape
Proportion of fat-modified cells compared to control ([1]; p<0.05): significantly reduced
Grade of proportion of abnormal fat-containing cells in the liver lobules around the central vein [1]: 3.57 ± 0.35
ACAT activity (ACAT [2]): 93.9 ± 21.5 pmol/minute/mg protein
ACAT activity inhibition (ACAT [2]): 26.2%

Compound: COC(=O)C(CO)NC(=O)CCc1ccc(O)c(O)c1 (centres unmarked) [BN30063, 2-[3-(3,4-dihydroxyphenyl)propionylamino]-3-hydroxy propionic acid methyl ester]
Pathological changes in lung, myocardium, kidney and muscle (microscope) [3]: no pathogenic abnormality was found
ACAT activity (ACAT [4]): 186.56 pmol/minute/mg protein
ACAT activity inhibition (ACAT [4]): 0%

Compound: CC[C@H](C)C(=O)O[C@H]1C[C@@H](C)C=C2C=C[C@H](C)[C@H](CC[C@@H]3C[C@@H](O)CC(=O)O3)[C@H]21 [Lovastatin, reference compound]
Microscopic observation of liver cells (fatty liver) [1]: many cells containing excessive fat were observed around the central vein
Grade of proportion of abnormal fat-containing cells in the liver lobules around the central vein [1]: 3.97 ± 0.15
ACAT activity (ACAT [2]): 96.2 ± 21.3 pmol/minute/mg protein
ACAT activity inhibition (ACAT [2]): 23.8%
ACAT activity (ACAT [4]): 166.66 pmol/minute/mg protein
ACAT activity inhibition (ACAT [4]): 10.46%

More lines, main results first:

Pathological changes in lung, myocardium, kidney and muscle (microscope) [3]: no pathogenic abnormality was found
Compound: CC(C)CC(NC(=O)CCc1ccc(O)c(O)c1)C(=O)O (centres unmarked) [BN30064, 2-[3-(3,4-dihydroxyphenyl)propionylamino]-4-methyl pentanoic acid]
ACAT activity (ACAT [4]): 152.49 pmol/minute/mg protein
ACAT activity inhibition (ACAT [4]): 18.07%

Pathological changes in lung, myocardium, kidney and muscle (microscope) [3]: no pathogenic abnormality was found
Compound: O=C(O)CC(NC(=O)CCc1ccc(O)c(O)c1)C(=O)O (centres unmarked) [BN30067, 2-[3-(3,4-dihydroxyphenyl)propionylamino]-succinic acid]
ACAT activity (ACAT [4]): 160.01 pmol/minute/mg protein
ACAT activity inhibition (ACAT [4]): 14.03%
